In patent US20240263133A1, “PROCESS FOR THE ISOLATION AND CULTURE OF STRAINS, THE STRAINS, USE THEREOF, MEDIA FOR CULTURING THEREOF AND A FORM OF SCYTONEMIN” (UVERA SA, priority 2021, published 2024):

Tests used:
[1] = UV absorption, specific extinction in DMSO by spectrophotometer; format: physicochemical; details: 1% by weight, 1 cm cuvette
Procedure: A scytonemin sample obtained according to Example 1 was dissolved in DMSO (dimethylsulfoxide) to a concentration of 1% by weight and subsequently, with a spectrophotometer used according to the standard procedures (manufacturer: Varian, model: CARY 100 Scan) absorbance was measured for two wavelengths (305 and 393 nm) in a cuvette with 1 cm thickness.

[2] = Thermogravimetric/differential thermal analysis (TG/DTA), thermal decomposition; format: physicochemical; details: argon, heating 15 ° C./minute, 3.7 mg
Procedure: 3.7 mg of the sample was weighed out into an alumina crucible and 34.6 mg of pure gold wire (99.999%) was added to balance the rod weight with the microbalance counterweight.
• Argon flow at 2 atm • Sample weight: 3.7 mg • Crucible: 100 μL Al2O3 • Reference crucible: Al2O3 • Temperature ramp:
Weight losses in successive stages were calculated based on the thermogravimetric curve, and the presence of exothermic and endothermic processes during sample heating were determined from the heat flow curve.

[3] = cited from earlier work
[4] = Degree of scytonemin dispersion in selected solutions used in cosmetics; format: physicochemical; details: for dispersion level: shaker 1 min, ultrasonic bath 10 min
Procedure: 0.5 mg scytonemin was weighed out on an analytical balance and suspended in 1 g of the solution: • 1) Propylene glycol (INCI: Propylene Glycol) • 2) Refined apricot oil (INCI: Prunus Armeniaca (Apricot) Kernel Oil) • 3) Glycerin (INCI: Glycerin) • 4) Isohexadecane (INCI: Isohexadecane) • 5) 2-octyldodecan-1-ol ODD (INCI: Octyldodecanol) • 6) SLP Emulsifier (INCI: Sorbitan Laurate/Polyglyceryl-4 Laurate/Dilauryl Citrate)
Subsequently, the sample was mixed using a shaker for approx. 1 min and maintained for 10 min in an ultrasonic bath to achieve a higher dispersion level.
0.5 mg of scytonemin was weighed out on an analytical balance and suspended in 5 g of the composition: • 7) glycerin+glycerol stearate+water+silica+alcohol
The sample was stirred for 5 min using a laboratory stirrer

[5] = Storage stability in room conditions, absorbance spectra before and after; format: physicochemical; details: 25° C., 10 months
Procedure: The compound prepared in Example 1 was stored in room conditions (temp. 25° C.) for 10 months. Absorbance spectra before and after the storage test are identical, which confirms stability of the compound. […] The crystalline form of scytonemin of the invention is stable.

- Specific extinction/1% at 305 nm ([1]; 305 nm): 330
- Specific extinction/1% to 393 nm ([1]; 393 nm): 730
- Maximum of weight loss (decomposition maximum) [2]: 380.3 °C
- T range of decomposition [2]: 365.4-380.3 °C
- dispersion level ([4]; 0.5 mg in 1 g 2-octyldodecan-1-ol ODD (solution 5)): Relatively high dispersion level
- dispersion level ([4]; 0.5 mg in 1 g SLP Emulsifier (solution 6)): Low dispersion level
- dispersion level ([4]; 0.5 mg in 1 g glycerin (solution 3)): Low dispersion level
- dispersion level ([4]; 0.5 mg in 1 g isohexadecane (solution 4)): High dispersion level
- dispersion level ([4]; 0.5 mg in 1 g propylene glycol (solution 1)): High dispersion level
- dispersion level ([4]; 0.5 mg in 1 g refined apricot oil (solution 2)): Very low dispersion level
- absorbance spectra before and after the storage test [5]: identical
Substance: scytonemin
- characteristic absorbance spectra after continuous UVA irradiation ([3]; 2 months, UVA 5 W/m2): practically unchanged
- characteristic absorbance spectra after heating ([3]; heating to 60° C. for 2 months): practically unchanged
- dispersion / dissolution in raw material base ([4]; 0.5 mg in 5 g glycerin+glycerol stearate+water+silica+alcohol (composition 7), stirred 5 min): did not dissolve but disintegrated into smaller particles
